The values that follow come from article PMC4014703 (Pharmaceuticals, 2014).

Where a SMILES comes first, the peptide text is derived from it. Side-chain parts run from the residue outwards. [ ]: non-standard residue; d: D form. The star is where a group is joined. DOTA = O=C(O)CN1CCN(CC(=O)O)CCN(CC(=O)*)CCN(CC(=O)O)CC1; PEG6 = NCCOCCOCCOCCOCCOCCOCCC(=O)O; Tle = CC(C)(C)[C@H](N)C(=O)O; Nlys = NCCCCNCC(=O)O

The nature of one data set: in vivo. Set-up: species or system nude mice. To be noted: nude, mouse, total radioactivity. How it is done:
10–14 days after inoculation of the HT29 cells (tumor weight: 200–700 mg), the mice (about 10–12 weeks old with about 35–40 g body weight) were used for biodistribution studies. […] They were sacrificed by cervical dislocation 1 h, 4 h and 24 h after injection. Tumors and other tissues (blood, lung, liver, kidneys, heart, spleen, brain, muscle, femur and intestine) were rapidly removed and weighed. Radioactivity of the dissected tissues was measured using a gamma counter (Wallac Wizard, Perkin Elmer). Results were expressed as percentage of injected dose per gram of tissue (% ID/g), and tumor-to-organ ratios were calculated. Two randomly chosen mice were used for the determination of nonspecific tracer uptake in vivo. […] These mice were sacrificed by cervical dislocation at 4 h post injection (p.i.) and organs and tissue were removed, weighed and counted as described above.

A further data set relates to tumor. The settings on record: ^188Re-labeled peptide, day 6 after begin of treatment; cited from earlier work.

For `CC(C)C[C@H](NC(=O)[C@@H](NC(=O)[C@H](Cc1ccc(O)cc1)NC(=O)[C@@H]1CCCN1C(=O)[C@H](CCCCN)NC(=O)CN(CCCCN)C(=O)[C@@H](N)CCCCNC(=O)CCOCCOCCOCCOCCOCCOCCNC(=O)CN1CCN(CC(=O)O)CCN(CC(=O)O)CCN(CC(=O)O)CC1)C(C)(C)C)C(=O)O` [[^177Lu]NT127, metal not drawn] (H-K([PEG6-DOTA])[Nlys]KPY[Tle]L-OH), in the data set “in vivo” (iv), the tissue to tissue ratio at 1 h is 30, the tissue to tissue ratio at 24 h was 60, the tissue uptake (usually the percentage of the injected dose found per gram of tissue) at 1 h was 0.05 %ID/g and the tissue uptake at 24 h was 0.01 %ID/g. The tissue uptake at 24 h in “in vivo” (iv, Accumulation in HT29 tumor) is 0.6 %ID/g. Also, in the data set “in vivo” (iv, Accumulation in kidney), the tissue uptake at 1 h amounted to 38 ± 1 %ID/g. In addition, the tissue uptake at 24 h in “in vivo” (iv, Radioactivity concentration in liver) amounted to 0.4 %ID/g. Moreover, the tissue uptake at 4 h in the data set “in vivo” (Accumulation in HT29 tumor) came out at 1.1 %ID/g.
For “(N^αHis)Ac-Arg-(N-CH3)-Arg-Pro-Dmt-Tle-Leu [NT-XIX]”, the “Tumor growth in tumor-bearing nude mice” value in the data set on tumor is “decreased”.
